Assay results as given in patent publication US10618902B2, “Substituted pyrido[2,3-d]pyrimidines as inhibitors of protein kinases” (Celgene CAR LLC, priority 2013, dated 2020).
Entries after “also recorded” stand apart in the source; their conditions may differ. Like-named read-outs stand apart in the source and are kept apart here.

Key:
MDA-MB-453 cells = assay: Cell proliferation, MDA-MB-453 (CellTiter Glo); type: cell-based; settings: 96 hr
Protocol: (§1) The growth inhibition (GI50) values were determined by Graph Pad Prism.

Huh7 cells = assay: Cell proliferation, Huh7 (CellTiter Glo); type: cell-based
Protocol: as §1

FGFR4-WT = FGFR4-WT (Homo sapiens (Human), UniProt P22455); assay: Omnia assay for potency against FGFR4 enzyme; type: biochemical; settings: method a: FGFR4-WT (Invitrogen) 10 nM, ATP 300 uM, Y10-Sox 10 uM
FGFR4-WT, sequence (P22455 22-802): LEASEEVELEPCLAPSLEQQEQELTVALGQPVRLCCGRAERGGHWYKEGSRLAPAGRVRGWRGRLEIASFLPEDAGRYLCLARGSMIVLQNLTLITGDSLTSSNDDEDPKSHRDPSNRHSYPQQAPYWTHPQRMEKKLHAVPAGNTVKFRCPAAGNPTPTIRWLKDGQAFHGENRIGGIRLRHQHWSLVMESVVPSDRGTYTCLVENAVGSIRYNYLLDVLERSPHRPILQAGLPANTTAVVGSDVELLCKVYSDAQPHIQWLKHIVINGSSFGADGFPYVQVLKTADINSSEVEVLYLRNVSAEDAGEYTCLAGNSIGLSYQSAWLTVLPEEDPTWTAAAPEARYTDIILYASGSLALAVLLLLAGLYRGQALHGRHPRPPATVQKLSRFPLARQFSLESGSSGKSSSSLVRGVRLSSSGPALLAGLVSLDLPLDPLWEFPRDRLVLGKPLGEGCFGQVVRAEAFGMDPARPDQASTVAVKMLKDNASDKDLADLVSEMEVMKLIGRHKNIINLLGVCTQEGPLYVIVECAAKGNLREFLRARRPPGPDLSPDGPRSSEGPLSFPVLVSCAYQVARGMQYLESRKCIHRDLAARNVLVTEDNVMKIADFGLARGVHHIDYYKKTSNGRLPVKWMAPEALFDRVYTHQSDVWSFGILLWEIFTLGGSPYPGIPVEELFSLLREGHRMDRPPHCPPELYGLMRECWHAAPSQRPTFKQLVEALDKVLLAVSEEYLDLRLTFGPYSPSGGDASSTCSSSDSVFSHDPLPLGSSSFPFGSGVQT
Protocol: A 10× stock solution of FGFR4-WT (PR4380C or P3054), (from Invitrogen, Carlsbad, Calif.) corresponding to method a in Table 10, was prepared as described below. Alternatively, a 10× stock solution of FGFR4-WT (F01-11G), (SignalChem, Richmond, BC) corresponding to method b in Table 10, was prepared as described below. A solution of 1.4×ATP (AS001A) and 5× Tyr-Sox conjugated peptide substrate (KNZ3101) were prepared in 1× kinase reaction buffer consisting of 20 mM Tris, pH 7.5, 5 mM MgCl2, 1 mM EGTA, 5 mM […], 5% glycerol (10× stock, KB002A) and 0.2 mM DTT (DS001A). […] The serially diluted compounds were prepared on a Tecan EVO100. A second addition of 10 μl of Tyr-Sox FGFR4 substrate was added to each well and the kinase reactions were started with the addition of 35 μL of 1.4×ATP. The reactions were monitored every 71 seconds for 240 minutes at λex360/λem485 in a Synergy plate reader from BioTek (Winooski, Vt.). […] Methods:
a) [FGFR4-WT]=10 nM, [ATP]=300 uM, [Y10-Sox]=10 uM (ATP KMapp−300 uM),

pFGFR4 (Huh7 cells) = pFGFR4 (Huh7 cells) (Homo sapiens (Human), UniProt P22455); assay: FGFR4 signaling (pFGFR4) in Huh7 cells (MSD); type: cell-based; settings: read-out: Signaling EC50 (nM) pFGFR4 (Huh)
pFGFR4 (Huh7 cells), sequence (P22455 22-802): as above

[1] = biological target: pFGFR4 in MDA-MB-453 cells (Homo sapiens (Human), UniProt P22455, Y367C); assay: Washout experiment (duration of pFGFR4 inhibition); type: cell-based; settings: 1000-2000 nM for 1 hr, washed, up to 24 hr
pFGFR4 in MDA-MB-453 cells, sequence (P22455 22-802 Y367C): as the sequence (P22455 22-802) above, with Y346C counted along it
Protocol: The cells were allowed to settle down for 4 hrs and were then maintained in low-serum (0.1% FBS) media overnight.
The following morning, the media was removed and the cells were treated with 1000-2000 nM of test compound in low-serum media for 1 hr. The cells were washed free of test compound (3×) with PBS (Invitrogen). One set of cells was immediately lysed as indicated above as the 0 hr time point. The remaining cells were incubated with the appropriate complete growth media (10-20% FBS) for 1, 2, 4, 8, 16 (in certain circumstances) and 24 hr. DMSO (0.5%) controls were collected at all time points.

[2] = 120 hr, read-out: Cell Proliferation GI50 (nM) HUH

| Structure (SMILES) | GI50 (MDA-MB-453 cells; Homo sapiens) [nM] | GI50 (Huh7 cells; Homo sapiens, Huh-7, 120 hr) [nM] | IC50 (FGFR4-WT) [nM] | EC50 (pFGFR4 (Huh7 cells)) [nM] | GI50 (MDA-MB-453 cells) [nM] | GI50 (Huh7 cells; [2]) [nM] | duration of action against pFGFR4 signalling after washout [1] |
| --- | --- | --- | --- | --- | --- | --- | --- |
| C=CC(=O)N[C@H]1COC[C@H]1Nc1ncc2cc(-c3c(F)c(OC)cc(OC)c3Cl)c(=O)n(C)c2n1 [Compound I-279] | < 100 | < 100 |  |  |  |  |  |
| C=CC(=O)Nc1ccccc1Nc1ncc2cc(-c3c(Cl)c(OC)cc(OC(F)F)c3Cl)c(=O)n(C)c2n1 [Compound I-289] |  |  | < 100 | < 100 | < 100 | 501 to 999 |  |
| C=CC(=O)Nc1cc(N2CCN(CC)CC2)ccc1Nc1ncc2cc(-c3c(Cl)c(OC)cc(OC)c3Cl)c(=O)n(C)c2n1 [Compound I-269] | < 100 | 101 to 500 | < 100 | < 100 |  |  |  |
| C=CC(=O)N[C@H]1COC[C@H]1Nc1ncc2cc(-c3c(F)c(OC)cc(OC)c3F)c(=O)n(C)c2n1 [Compound I-281] | 101 to 500 | < 100 |  |  |  |  |  |
| C=CC(=O)Nc1cc(-c2nnnn2C)ccc1Nc1ncc2cc(-c3c(Cl)c(OC)cc(OC)c3Cl)c(=O)n(C)c2n1 [Compound I-276] | < 100 | 101 to 500 | < 100 | < 100 |  |  |  |
| C=CC(=O)NC1CCCCC1Nc1ncc2c(n1)N(Cc1cscn1)C(=O)N(c1c(Cl)c(OC)cc(OC)c1Cl)C2 (racemic) [Compound I-69] |  |  |  |  |  |  | prolonged duration of action; also recorded: prolonged inhibition of autophosphorylation of FGFR4 |
| C=CC(=O)Nc1ccc(F)c(F)c1Nc1ncc2cc(-c3c(Cl)c(OC)cc(OC)c3Cl)c(=O)n(C)c2n1 [Compound I-285] |  |  | < 100 | < 100 | < 100 | < 100 |  |
| C=CC(=O)Nc1ccccc1Nc1ncc2c(n1)N(Cc1cccc(NC(=O)CC)c1)C(=O)N(c1c(Cl)c(OC)cc(OC)c1Cl)C2 [Compound I-1] |  |  |  |  |  |  | has PDA; also recorded: prolonged duration of action |
| CCC(=O)Nc1cccc(CN2C(=O)N(c3c(Cl)c(OC)cc(OC)c3Cl)Cc3cnc(Nc4ccccc4NC(=O)CC)nc32)c1 [Compound I-234] |  |  |  |  |  |  | does not have PDA; also recorded: does not show prolonged duration of action |
